Reference: article PMC6751662, “Pharmacological and functional similarities of the human neuropeptide Y system in C. elegans challenges phylogenetic views on the FLP/NPR system” (Cell Communication and Signaling : CCS, 2019)
Ends that are not written are not given here.

What was measured:
Format in all cases: cell-based, C. elegans
NPR-1 = molecular target: T1, NPR-1 (Caenorhabditis elegans, UniProt Q18534); assay: cAMP reporter gene assay, Gi/o (inhibition of forskolin-induced cAMP), NPR-1; set-up: host or cells: HEK293; conditions: for cAMP, x-fold of forskolin (mean), NPR-1 / Gi (Gs) [x-fold of forskolin], NPR-1, mean: inhibition of cAMP production induced by 1 µM forskolin (set to 1.00), transiently transfected HEK293 cells, mean of at least three independent experiments; for cAMP, x-fold of forskolin (mean), NPR-1: lower = higher Gi/o activity
T1 sequence (Q18534 1-457): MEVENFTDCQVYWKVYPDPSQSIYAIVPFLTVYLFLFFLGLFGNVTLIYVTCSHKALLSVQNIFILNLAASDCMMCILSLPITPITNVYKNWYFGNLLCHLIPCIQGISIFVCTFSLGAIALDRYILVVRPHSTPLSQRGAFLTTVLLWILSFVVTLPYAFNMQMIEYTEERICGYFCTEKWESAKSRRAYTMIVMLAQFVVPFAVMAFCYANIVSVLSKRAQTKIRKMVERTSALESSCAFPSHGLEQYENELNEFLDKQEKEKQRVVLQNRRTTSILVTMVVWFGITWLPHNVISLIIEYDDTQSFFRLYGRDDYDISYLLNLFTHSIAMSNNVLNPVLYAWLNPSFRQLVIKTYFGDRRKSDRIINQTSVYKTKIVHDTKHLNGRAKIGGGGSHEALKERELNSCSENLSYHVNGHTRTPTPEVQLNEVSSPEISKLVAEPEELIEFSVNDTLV
Experimental: (§1) Activation of Gs and Gi/o was assessed with a cAMP reporter gene assay. HEK293 cells grown to 70–80% confluency in 6-well plates were transiently co-transfected with vectors encoding the receptor and the cAMP reporter gene plasmid pGL4.29 [luc2P/CRE/Hygro] (Promega; 4 μg total, 1:1 ratio) using Metafectene Pro (3 μl/μg DNA; Biontex) following the manufacturer’s instructions. 16 h post transfection, the cells were seeded into white 384-well plates at a density of 20,000 cells/well. On the next day, the medium was removed and the cells were stimulated with 20 μl of peptide solution (or forskolin as positive control) in serum-free DMEM for 4 h. For measuring Gi/o activity, the peptide solutions additionally contained 1 μM forskolin to elevate cellular cAMP levels. After incubation, the luciferase substrate OneGlo in lysis buffer (Promega) was added and the luminescence was measured in a microplate reader Tecan Spark (Tecan). Data were analyzed with GraphPad Prism 5.03 and are shown as fold of basal or fold of forskolin in case of Gαi/o activity.
(§2) For in vitro activation, data is presented as mean ± SEM of at least three independent experiments conducted in technical triplicate. […] For the C. elegans NPRs, we considered the strongest response elicited by any of the peptides downstream of a particular receptor as the receptor’s maximal signal. This may or may not be the biological maximum that can be reached by the ‘true’ endogenous agonist. For the human receptors, the response to the established endogenous agonist reflected the maximal signal.

NPR-4b = molecular target: T2, NPR-4b (Caenorhabditis elegans, UniProt A0A078BTK0); assay: cAMP reporter gene assay, Gi/o (inhibition of forskolin-induced cAMP), NPR-4b; conditions: transiently transfected HEK293 cells; for cAMP, x-fold of forskolin (mean), NPR-4b: 1 µM forskolin set to 1.00; for cAMP, x-fold of forskolin (mean), NPR-4b / Gi (Gs) [x-fold of forskolin], NPR-4b, mean: mean of at least three independent experiments; for Gi (Gs) [x-fold of forskolin], NPR-4b, mean: inhibition of cAMP production induced by 1 µM forskolin (set to 1.00)
T2 sequence (A0A078BTK0 1-376): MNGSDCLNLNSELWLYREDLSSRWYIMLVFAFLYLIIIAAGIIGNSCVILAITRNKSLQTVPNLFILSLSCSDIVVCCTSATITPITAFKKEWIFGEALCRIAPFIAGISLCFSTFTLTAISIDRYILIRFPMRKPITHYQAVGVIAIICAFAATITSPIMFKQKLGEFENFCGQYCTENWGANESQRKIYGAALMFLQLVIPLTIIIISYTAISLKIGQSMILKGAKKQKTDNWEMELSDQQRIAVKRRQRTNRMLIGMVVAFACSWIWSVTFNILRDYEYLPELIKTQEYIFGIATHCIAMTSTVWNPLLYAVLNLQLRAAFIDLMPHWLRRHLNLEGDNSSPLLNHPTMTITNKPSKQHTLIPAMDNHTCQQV
Experimental: as §1, with “(Tecan).” for “(Tecan). Data were analyzed with GraphPad Prism 5.03 and are shown as fold of basal or fold of forskolin in case of Gαi/o activity.”
as §2

NPR-3 = molecular target: T3, NPR-3 (Caenorhabditis elegans, UniProt P90745); assay: cAMP reporter gene assay, Gi/o (inhibition of forskolin-induced cAMP), NPR-3; conditions: for cAMP, x-fold of forskolin (mean), NPR-3: 1 µM forskolin set to 1.00; for cAMP, x-fold of forskolin (mean), NPR-3 / Gi (Gs) [x-fold of forskolin], NPR-3, mean: transiently transfected HEK293 cells, mean of at least three independent experiments; for Gi (Gs) [x-fold of forskolin], NPR-3, mean: inhibition of cAMP production induced by 1 µM forskolin (set to 1.00)
T3 construct: expressed in transfected cells; host or cells: HEK293
T3 sequence (P90745 1-376): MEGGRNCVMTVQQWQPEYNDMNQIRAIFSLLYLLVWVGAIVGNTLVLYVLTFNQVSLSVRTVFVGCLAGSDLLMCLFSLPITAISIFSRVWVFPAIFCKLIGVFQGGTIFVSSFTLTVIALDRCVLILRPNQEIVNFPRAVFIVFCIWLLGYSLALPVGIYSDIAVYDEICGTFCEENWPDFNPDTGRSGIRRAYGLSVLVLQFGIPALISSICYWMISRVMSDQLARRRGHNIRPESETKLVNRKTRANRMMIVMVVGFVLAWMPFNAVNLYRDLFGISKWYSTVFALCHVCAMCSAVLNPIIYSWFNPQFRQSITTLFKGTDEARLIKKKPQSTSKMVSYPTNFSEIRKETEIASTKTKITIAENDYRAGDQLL
Experimental: as §1, §2

NPR-11 = molecular target: T4, NPR-11 (Caenorhabditis elegans, UniProt Q18179); assay: cAMP reporter gene assay, Gi/o (inhibition of forskolin-induced cAMP), NPR-11; conditions: for cAMP, x-fold of forskolin (mean), NPR-11: 1 µM forskolin set to 1.00; for cAMP, x-fold of forskolin (mean), NPR-11 / Gi (Gs) [x-fold of forskolin], NPR-11, mean: mean of at least three independent experiments; for Gi (Gs) [x-fold of forskolin], NPR-11, mean: inhibition of cAMP production induced by 1 µM forskolin (set to 1.00)
T4 construct: expressed in transfected cells; host or cells: HEK293, transient
T4 sequence (Q18179 1-402): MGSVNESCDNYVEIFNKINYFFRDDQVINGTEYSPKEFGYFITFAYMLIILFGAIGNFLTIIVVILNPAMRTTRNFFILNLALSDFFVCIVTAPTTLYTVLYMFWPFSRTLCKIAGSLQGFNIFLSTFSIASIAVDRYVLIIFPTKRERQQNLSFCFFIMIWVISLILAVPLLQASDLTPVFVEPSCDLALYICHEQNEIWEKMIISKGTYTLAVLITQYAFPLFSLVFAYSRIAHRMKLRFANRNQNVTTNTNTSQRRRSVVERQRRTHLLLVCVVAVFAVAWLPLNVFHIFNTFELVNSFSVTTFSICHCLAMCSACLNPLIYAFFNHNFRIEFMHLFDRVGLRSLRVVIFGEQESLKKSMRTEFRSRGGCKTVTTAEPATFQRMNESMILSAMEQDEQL
Experimental: as §1, §2

[1] = 0.1 µM peptide, transiently transfected HEK293 cells
[2] = 10 µM peptide, transiently transfected HEK293 cells
[3] = HEK293, read-out: Emax ± SEM [%], SEM

cAMP, x-fold of forskolin (mean), NPR-1 (NPR-1; 0.1 µM peptide)	cAMP, x-fold of forskolin (mean), NPR-1 (NPR-1; 10 µM peptide)	cAMP, x-fold of forskolin (mean), NPR-4b (NPR-4b; 0.1 µM peptide)	cAMP, x-fold of forskolin (mean), NPR-4b (NPR-4b; 10 µM peptide)	cAMP, x-fold of forskolin (mean), NPR-3 (NPR-3; 0.1 µM peptide)	cAMP, x-fold of forskolin (mean), NPR-3 (NPR-3; 10 µM peptide)	cAMP, x-fold of forskolin (mean), NPR-11 (NPR-11; [1])	cAMP, x-fold of forskolin (mean), NPR-11 (NPR-11; [2])	Substance	other results
1.21 x-fold of forskolin	1.49 x-fold of forskolin	1.05 x-fold of forskolin	1.14 x-fold of forskolin	1.02 x-fold of forskolin	1.25 x-fold of forskolin	0.37 x-fold of forskolin	0.14 x-fold of forskolin	APLEPVYPGDNATPEQMAQYAADLRRYINMLTRPRY-NH2 [PP, human pancreatic polypeptide, reference compound]	
0.72 x-fold of forskolin	0.82 x-fold of forskolin	0.85 x-fold of forskolin	0.79 x-fold of forskolin	0.77 x-fold of forskolin	0.85 x-fold of forskolin	0.77 x-fold of forskolin	0.21 x-fold of forskolin	APLEGFEDMSGFLRTIDGIQKPRF-NH2 [FLP-33, NPY-like C. elegans FLP with C-terminal RxRF/Ya signature]	Emax ± SEM [%] (NPR-11; NPR-11, forskolin (1 µM) set to 1.00, lower values correspond to high Gi/o activity, transiently transfected HEK293 cells, mean ± SEM of at least three independent experiments, SEM): -0.57 ± 0.06%

More lines, now with the values behind:

Substance	cAMP, x-fold of forskolin (mean), NPR-1 (NPR-1; 0.1 µM peptide)	cAMP, x-fold of forskolin (mean), NPR-1 (NPR-1; 10 µM peptide)	cAMP, x-fold of forskolin (mean), NPR-4b (NPR-4b; 0.1 µM peptide)	cAMP, x-fold of forskolin (mean), NPR-4b (NPR-4b; 10 µM peptide)	cAMP, x-fold of forskolin (mean), NPR-3 (NPR-3; 0.1 µM peptide)	cAMP, x-fold of forskolin (mean), NPR-3 (NPR-3; 10 µM peptide)	cAMP, x-fold of forskolin (mean), NPR-11 (NPR-11; [1])	cAMP, x-fold of forskolin (mean), NPR-11 (NPR-11; [2])	other results
AGSDPNFLRF-NH2 [FLP-1-2, C. elegans FMRFamide-like peptide, C-terminally amidated, synthesized by SPPS]	0.98 x-fold of forskolin	0.89 x-fold of forskolin	0.81 x-fold of forskolin	0.42 x-fold of forskolin	0.87 x-fold of forskolin	1.02 x-fold of forskolin	0.92 x-fold of forskolin	0.72 x-fold of forskolin	
ASPSFIRF-NH2 [FLP-4-2, C. elegans FMRFamide-like peptide, C-terminally amidated, synthesized by SPPS]	0.77 x-fold of forskolin	0.76 x-fold of forskolin	0.52 x-fold of forskolin	0.19 x-fold of forskolin	0.94 x-fold of forskolin	0.83 x-fold of forskolin	0.89 x-fold of forskolin	0.83 x-fold of forskolin	
RGPSGPLRF-NH2 [FLP-15-2]									Emax (NPR-1; [3]): -0.92 ± 0.1%; EC50 (NPR-1; SEM): 25.1 nM; Emax (NPR-4b; NPR-4b, forskolin (1 µM) set to 1.00, lower values correspond to high Gi/o activity, mean ± SEM of at least three independent experiments, SEM): -0.65 ± 0.07%; Emax (NPR-3; [3]): -0.8 ± 0.09%; EC50 (NPR-3; SEM): 50.1 nM; EC50 (NPR-11): 998 nM; Emax (NPR-11; [3]): -0.76 ± 0.11%
NPENDTPFGTMRF-NH2 [FLP-3-4, C. elegans FMRFamide-like peptide, C-terminally amidated, synthesized by SPPS]	0.87 x-fold of forskolin	0.89 x-fold of forskolin	0.67 x-fold of forskolin	0.23 x-fold of forskolin	0.85 x-fold of forskolin	0.89 x-fold of forskolin	0.80 x-fold of forskolin	0.97 x-fold of forskolin	
RGPSGPLAF-NH2 [[R8A]FLP-15-2]									Gi (Gs) [x-fold of forskolin], NPR-1, mean (NPR-1; 0.1 µM peptide): 0.84 x-fold of forskolin; Gi (Gs) [x-fold of forskolin], NPR-1, mean (NPR-1; 10 µM peptide): 0.85 x-fold of forskolin; Gi (Gs) [x-fold of forskolin], NPR-4b, mean (NPR-4b; 0.1 µM peptide): 0.93 x-fold of forskolin; Gi (Gs) [x-fold of forskolin], NPR-4b, mean (NPR-4b; 10 µM peptide): 0.97 x-fold of forskolin; Gi (Gs) [x-fold of forskolin], NPR-3, mean (NPR-3; 0.1 µM peptide): 0.97 x-fold of forskolin; Gi (Gs) [x-fold of forskolin], NPR-3, mean (NPR-3; 10 µM peptide): 0.88 x-fold of forskolin; Gi (Gs) [x-fold of forskolin], NPR-11, mean (NPR-11; [1]): 0.93 x-fold of forskolin; Gi (Gs) [x-fold of forskolin], NPR-11, mean (NPR-11; [2]): 0.53 x-fold of forskolin
